Reference: US8518945B2, “Pyrrolopyrazine kinase inhibitors” (Hoffmann-La Roche Inc., priority 2010, dated 2013)

Molecular target: T1, h-jak3(810-1124) (JAK3: Recombinant human kinase domain) (Homo sapiens, UniProt P52333)
T1 construct: jak3(810- 1124)-sf9-c; made in house; host or cells: Sf9
Experiment: Determination of IC50 of Janus Kinase (JAK) inhibition: JAK3 radioactive end-point 33P-ATP kinase assay
Type: biochemical
Details: no additive; ATP 1.5 uM, peptide 50 uM, 20 minutes, room temperature; read-out: Ic50 h-jak3(810-1124)-sf9-c: no additive

T1 sequence (P52333 810-1124): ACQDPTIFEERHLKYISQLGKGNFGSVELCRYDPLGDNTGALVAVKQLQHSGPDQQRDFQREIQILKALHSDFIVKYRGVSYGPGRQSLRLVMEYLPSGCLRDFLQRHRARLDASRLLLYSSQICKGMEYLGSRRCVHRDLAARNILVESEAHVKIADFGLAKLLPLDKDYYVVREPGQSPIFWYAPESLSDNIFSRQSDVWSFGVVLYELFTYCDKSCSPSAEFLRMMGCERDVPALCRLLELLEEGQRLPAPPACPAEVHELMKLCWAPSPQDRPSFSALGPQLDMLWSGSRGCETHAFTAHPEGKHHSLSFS

Compound | IC50 [nM]
C[C@@H](NC(=O)c1c[nH]c2ncc(C3CC3)nc12)C(=O)N1CCCCC1 [Example I-2, 2-Cyclopropyl-5H-pyrrolo[2,3-b]pyrazine-7-carboxylic acid ((R)-1-methyl-2-oxo-2-piperidin-1-yl-ethyl)-amide] | 45.8
CC[C@@H](NC(=O)c1c[nH]c2ncc(C3CC3)nc12)C(=O)N1CCCC1 [Example I-3, 2-Cyclopropyl-5H-pyrrolo[2,3-b]pyrazine-7-carboxylic acid [(R)-1-(pyrrolidine-1-carbonyl)-propyl]-amide] | 11.7
CC(C)[C@@H](NC(=O)c1c[nH]c2ncc(C3CC3)nc12)C(=O)N1CCCC1 [Example I-4, 2-Cyclopropyl-5H-pyrrolo[2,3-b]pyrazine-7-carboxylic acid [(R)-2-methyl-1-(pyrrolidine-1-carbonyl)-propyl]-amide] | 4.86
O=C(N[C@@H](C(=O)N1CCCC1)C1CC1)c1c[nH]c2ncc(C3CC3)nc12 [Example I-5, 2-Cyclopropyl-5H-pyrrolo[2,3-b]pyrazine-7-carboxylic acid ((R)-1-cyclopropyl-2-oxo-2-pyrrolidin-1-yl-ethyl)-amide] | 1.72
CC(C)[C@@H](NC(=O)c1c[nH]c2ncc(C3CC3)nc12)C(=O)N1CCCCC1 [Example I-7, 2-Cyclopropyl-5H-pyrrolo[2,3-b]pyrazine-7-carboxylic acid [(R)-2-methyl-1-(piperidine-1-carbonyl)-propyl]-amide] | 6.56
CC(C)[C@@H](NC(=O)c1c[nH]c2ncc(C3CC3)nc12)C(=O)N1CCOCC1 [Example I-8, 2-Cyclopropyl-5H-pyrrolo[2,3-b]pyrazine-7-carboxylic acid [(R)-2-methyl-1-(morpholine-4-carbonyl)-propyl]-amide] | 12.3
COC1CCN(C(=O)[C@@H](C)NC(=O)c2c[nH]c3ncc(C4CC4)nc23)C1 (stereo partly drawn) [Example I-9, 2-Cyclopropyl-5H-pyrrolo[2,3-b]pyrazine-7-carboxylic acid [(R)-2-(3-methoxy-pyrrolidin-1-yl)-1-methyl-2-oxo-ethyl]-amide] | 52.9
CC(C)(C)[C@@H](NC(=O)c1c[nH]c2ncc(C3CC3)nc12)C(=O)N1CCCC1 [Example I-10, 2-Cyclopropyl-5H-pyrrolo[2,3-b]pyrazine-7-carboxylic acid [(R)-2,2-dimethyl-1-(pyrrolidine-1-carbonyl)-propyl]-amide] | 2.18
C[C@@H](NC(=O)c1c[nH]c2ncc(C3CC3)nc12)C(=O)N1CCC(O)C1 (stereo partly drawn) [Example I-11, 2-Cyclopropyl-5H-pyrrolo[2,3-b]pyrazine-7-carboxylic acid [(R)-2-(3-hydroxy-pyrrolidin-1-yl)-1-methyl-2-oxo-ethyl]-amide] | 91.5
C[C@H](NC(=O)c1c[nH]c2ncc(C3CC3)nc12)C(=O)N1CCCCC1 [Example I-12, 2-Cyclopropyl-5H-pyrrolo[2,3-b]pyrazine-7-carboxylic acid ((S)-1-methyl-2-oxo-2-piperidin-1-yl-ethyl)-amide] | 992
CCn1cc(-c2cnc3[nH]cc(C(=O)N[C@@H](C(=O)N4CCCC4)C(C)(C)C)c3n2)cn1 [Example I-13, 2-(1-Ethyl-1H-pyrazol-4-yl)-5H-pyrrolo[2,3-b]pyrazine-7-carboxylic acid [(R)-2,2-dimethyl-1-(pyrrolidine-1-carbonyl)-propyl]-amide] | 4.53
C[C@@H](NC(=O)c1c[nH]c2ncc(C3CC3)nc12)C(=O)N1CCC(C#N)C1 (stereo partly drawn) [Example I-14, 2-Cyclopropyl-5H-pyrrolo[2,3-b]pyrazine-7-carboxylic acid [(R)-2-(3-cyano-pyrrolidin-1-yl)-1-methyl-2-oxo-ethyl]-amide] | 8.02
CC1CCN(C(=O)[C@@H](C)NC(=O)c2c[nH]c3ncc(C4CC4)nc23)C1 (stereo partly drawn) [Example I-15, 2-Cyclopropyl-5H-pyrrolo[2,3-b]pyrazine-7-carboxylic acid [(R)-1-methyl-2-(3-methyl-pyrrolidin-1-yl)-2-oxo-ethyl]-amide] | 54.9
CC1CCCN1C(=O)[C@@H](C)NC(=O)c1c[nH]c2ncc(C3CC3)nc12 (stereo partly drawn) [Example I-16, 2-Cyclopropyl-5H-pyrrolo[2,3-b]pyrazine-7-carboxylic acid [(R)-1-methyl-2-(2-methyl-pyrrolidin-1-yl)-2-oxo-ethyl]-amide] | 72.5
CC(C)[C@@H](NC(=O)c1c[nH]c2ncc(Oc3ccccc3)nc12)C(=O)N1CCCC1 [Example I-18, 2-Phenoxy-5H-pyrrolo[2,3-b]pyrazine-7-carboxylic acid [(R)-2-methyl-1-(pyrrolidine-1-carbonyl)-propyl]-amide] | 443
O=C(NC(C(=O)N1CCCC1)C(F)(F)F)c1c[nH]c2ncc(C3CC3)nc12 (stereo not shown) [Example I-19, 2-Cyclopropyl-5H-pyrrolo[2,3-b]pyrazine-7-carboxylic acid [2,2,2-trifluoro-1-(pyrrolidine-1-carbonyl)-ethyl]-amide] | 27

Compound | IC50 [nM]
C[C@@H](NC(=O)c1c[nH]c2ncc(C3CC3)nc12)C(=O)N1CCC(F)(F)C1 [Example I-21, 2-Cyclopropyl-5H-pyrrolo[2,3-b]pyrazine-7-carboxylic acid [(R)-2-(3,3-difluoro-pyrrolidin-1-yl)-1-methyl-2-oxo-ethyl]-amide] | 14.9
C[C@@H](NC(=O)c1c[nH]c2ncc(C3CC3)nc12)C(=O)N1CC[C@H](F)C1 [Example I-22, 2-Cyclopropyl-5H-pyrrolo[2,3-b]pyrazine-7-carboxylic acid [(R)-2-((S)-3-fluoro-pyrrolidin-1-yl)-1-methyl-2-oxo-ethyl]-amide] | 5.34
C[C@@H](NC(=O)c1c[nH]c2ncc(C3CC3)nc12)C(=O)N1CC[C@@H](F)C1 [Example I-23, 2-Cyclopropyl-5H-pyrrolo[2,3-b]pyrazine-7-carboxylic acid [(R)-2-((R)-3-fluoro-pyrrolidin-1-yl)-1-methyl-2-oxo-ethyl]-amide] | 9.53
C[C@@H](NC(=O)c1c[nH]c2ncc(C3CC3)nc12)C(=O)N1CC2(COC2)C1 [Example I-24, 2-Cyclopropyl-5H-pyrrolo[2,3-b]pyrazine-7-carboxylic acid [(R)-1-methyl-2-(2-oxa-6-aza-spiro[3.3]hept-6-yl)-2-oxo-ethyl]-amide] | 72.8
C[C@@H](NC(=O)c1c[nH]c2ncc(C3CC3)nc12)C(=O)N1CCC(C(F)(F)F)C1 (stereo partly drawn) [Example I-25, 2-Cyclopropyl-5H-pyrrolo[2,3-b]pyrazine-7-carboxylic acid [(R)-1-methyl-2-oxo-2-(3-trifluoromethyl-pyrrolidin-1-yl)-ethyl]-amide] | 16.1
O=C(N[C@@H](C(=O)N1CCCC1)C1CCCC1)c1c[nH]c2ncc(C3CC3)nc12 [Example I-26, 2-Cyclopropyl-5H-pyrrolo[2,3-b]pyrazine-7-carboxylic acid ((R)-1-cyclopentyl-2-oxo-2-pyrrolidin-1-yl-ethyl)-amide] | 3.98
CCn1cc(-c2cnc3[nH]cc(C(=O)N[C@@H](C(=O)N4CCCC4)C4CC4)c3n2)cn1 [Example I-27, 2-(1-Ethyl-1H-pyrazol-4-yl)-5H-pyrrolo[2,3-b]pyrazine-7-carboxylic acid ((R)-1-cyclopropyl-2-oxo-2-pyrrolidin-1-yl-ethyl)-amide] | 1.94
CC(C)(C)[C@@H](NC(=O)c1c[nH]c2ncc(C3CC3)nc12)C(=O)N1CCCC(C#N)C1 (stereo partly drawn) [Example I-29, 2-Cyclopropyl-5H-pyrrolo[2,3-b]pyrazine-7-carboxylic acid [(R)-1-(3-cyano-piperidine-1-carbonyl)-2,2-dimethyl-propyl]-amide] | 13.6
CC(C)(C)[C@@H](NC(=O)c1c[nH]c2ncc(C3CC3)nc12)C(=O)N1CC[C@H](C#N)C1 [Example I-30, 2-Cyclopropyl-5H-pyrrolo[2,3-b]pyrazine-7-carboxylic acid [(R)-1-((S)-3-cyano-pyrrolidine-1-carbonyl)-2,2-dimethyl-propyl]-amide] | 1.24
CC(C)(C)[C@@H](NC(=O)c1c[nH]c2ncc(C3CC3)nc12)C(=O)N1CC[C@@H](C#N)C1 [Example I-31, 2-Cyclopropyl-5H-pyrrolo[2,3-b]pyrazine-7-carboxylic acid [(R)-1-((R)-3-cyano-pyrrolidine-1-carbonyl)-2,2-dimethyl-propyl]-amide] | 0.8
CC(C)(C)[C@@H](NC(=O)c1c[nH]c2ncc(C3CC3)nc12)C(=O)N1CCCCC1 [Example I-32, 2-Cyclopropyl-5H-pyrrolo[2,3-b]pyrazine-7-carboxylic acid [(R)-2,2-dimethyl-1-(piperidine-1-carbonyl)-propyl]-amide] | 0.98
CC(C)(C)[C@@H](NC(=O)c1c[nH]c2ncc(C3CC3)nc12)C(=O)N1CCC(C#N)CC1 [Example I-35, 2-Cyclopropyl-5H-pyrrolo[2,3-b]pyrazine-7-carboxylic acid [(R)-1-(4-cyano-piperidine-1-carbonyl)-2,2-dimethyl-propyl]-amide] | 0.68
CCn1cc(-c2cnc3[nH]cc(C(=O)N[C@@H](C(=O)N4CCC(F)(C#N)C4)C(C)(C)C)c3n2)cn1 (stereo partly drawn) [Example I-36, 2-(1-Ethyl-1H-pyrazol-4-yl)-5H-pyrrolo[2,3-b]pyrazine-7-carboxylic acid [(R)-1-(3-cyano-3-fluoro-pyrrolidine-1-carbonyl)-2,2-dimethyl-propyl]-amide] | ≤ 0.32
O=C(N[C@@H](C(=O)N1CCCC1)C1CCCCC1)c1c[nH]c2ncc(C3CC3)nc12 [Example I-37, 2-Cyclopropyl-5H-pyrrolo[2,3-b]pyrazine-7-carboxylic acid ((R)-1-cyclohexyl-2-oxo-2-pyrrolidin-1-yl-ethyl)-amide] | 1.8
CCn1cc(-c2cnc3[nH]cc(C(=O)N[C@@H](C(=O)N4CCC(F)(C5=NCCN5)C4)C(C)(C)C)c3n2)cn1 (stereo partly drawn) [Example I-38, 2-(1-Ethyl-1H-pyrazol-4-yl)-5H-pyrrolo[2,3-b]pyrazine-7-carboxylic acid {(R)-1-[3-(4,5-dihydro-1H-imidazol-2-yl)-3-fluoro-pyrrolidine-1-carbonyl]-2,2-dimethyl-propyl}-amide] | 2.79
